Results: BindingDB's records for doi:10.1016/s0960-894x(02)00078-1 (Xenova, 2002)

biological target: Plasminogen activator inhibitor 1 (Homo sapiens, UniProt P05121); assay: ChEBML_222791
From the text: Inhibitory activity against human plasminogen activator inhibitor-1 (PAI-1) evaluated by chromogenic assay.

Sequence of Plasminogen activator inhibitor 1 (P05121 whole entry): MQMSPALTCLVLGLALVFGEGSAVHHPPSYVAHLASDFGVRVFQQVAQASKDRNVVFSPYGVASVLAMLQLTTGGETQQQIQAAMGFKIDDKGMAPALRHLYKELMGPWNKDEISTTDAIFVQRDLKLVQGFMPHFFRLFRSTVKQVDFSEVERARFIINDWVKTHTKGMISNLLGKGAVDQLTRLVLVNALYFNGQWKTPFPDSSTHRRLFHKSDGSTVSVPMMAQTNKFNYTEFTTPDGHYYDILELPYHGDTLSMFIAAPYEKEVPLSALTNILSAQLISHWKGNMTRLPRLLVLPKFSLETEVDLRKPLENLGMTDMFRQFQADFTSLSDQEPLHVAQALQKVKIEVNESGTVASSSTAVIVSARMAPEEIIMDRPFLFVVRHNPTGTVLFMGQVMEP

IC50, > 50 µM:
COc1ccccc1N1CC(=O)C(C(=O)Nc2ccc(OCCCCCCCC(=O)O)cc2)C1=O (centres undefined) [8-(4-{[4-Hydroxy-1-(2-methoxy-phenyl)-2-oxo-2,5-dihydro-1H-pyrrole-3-carbonyl]-amino}-phenoxy)-octanoic acid], COC(=O)CCCCCCCOc1ccc(NC(=O)C2C(=O)CN(c3ccc(Cl)cc3)C2=O)cc1 (centres undefined) [8-(4-{[1-(4-Chloro-phenyl)-4-hydroxy-2-oxo-2,5-dihydro-1H-pyrrole-3-carbonyl]-amino}-phenoxy)-octanoic acid methyl ester], O=C(O)CCCCCCCOc1ccc(NC(=O)C2C(=O)CN(c3ccccc3Cl)C2=O)cc1 (centres undefined) [8-(4-{[1-(2-Chloro-phenyl)-4-hydroxy-2-oxo-2,5-dihydro-1H-pyrrole-3-carbonyl]-amino}-phenoxy)-octanoic acid], O=C(O)CCCCCCCOc1ccc(NC(=O)C2C(=O)NC(Cc3ccc(O)cc3)C2=O)cc1 (centres undefined) [8-(4-{[4-Hydroxy-5-(4-hydroxy-benzyl)-2-oxo-2,5-dihydro-1H-pyrrole-3-carbonyl]-amino}-phenoxy)-octanoic acid], O=C(O)CCCCCCCOc1ccc(NC(=O)C2C(=O)CN(c3cccc4ccccc34)C2=O)cc1 (centres undefined) [8-{4-[(4-Hydroxy-1-naphthalen-1-yl-2-oxo-2,5-dihydro-1H-pyrrole-3-carbonyl)-amino]-phenoxy}-octanoic acid], O=C(O)CCCCCCCOc1ccc(NC(=O)C2C(=O)CN(Cc3ccccc3)C2=O)cc1 (centres undefined) [8-{4-[(1-Benzyl-4-hydroxy-2-oxo-2,5-dihydro-1H-pyrrole-3-carbonyl)-amino]-phenoxy}-octanoic acid], O=C(O)CCCCCCCOc1ccc(NC(=O)C2C(=O)CN(c3ccc(N4CCOCC4)cc3)C2=O)cc1 (centres undefined) [8-(4-{[4-Hydroxy-1-(4-morpholin-4-yl-phenyl)-2-oxo-2,5-dihydro-1H-pyrrole-3-carbonyl]-amino}-phenoxy)-octanoic acid], CC(=O)Nc1ccc(N2CC(=O)C(C(=O)Nc3ccc(OCCCCCCCC(=O)O)cc3)C2=O)cc1 (centres undefined) [8-(4-{[1-(4-Acetylamino-phenyl)-4-hydroxy-2-oxo-2,5-dihydro-1H-pyrrole-3-carbonyl]-amino}-phenoxy)-octanoic acid], CC1C(=O)C(C(=O)Nc2ccc(OCCCCCCCC(=O)O)cc2)C(=O)N1c1ccccc1 (centres undefined) [8-{4-[(4-Hydroxy-5-methyl-2-oxo-1-phenyl-2,5-dihydro-1H-pyrrole-3-carbonyl)-amino]-phenoxy}-octanoic acid]
